Some test systems named below: A498 renal; ACHN renal; HCT-15 colon; HL-60(TB) leukemia; HOP-62 NSCLC; NCI-H226 lung; OVCAR-4 ovarian; SF-539 CNS; SN12C renal; SNB-19 CNS; SNB-75 CNS; TK-10 renal; DU-145 prostate; HT29 colon; MDA-MB-231 breast; SF-295 CNS.
Common to all, as to test: DTP human tumour cell line panel, 48 h

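Interpolation was linear, between the two tested concentrations surrounding the appropriate level; five concentrations were tested over 48 hours in 96-well plates. TGI denotes the concentration required for complete inhibition of growth.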

Consider `N#C/C(c1nc2ccccc2[nH]1)=c1\s/c(=C/c2ccc(Cl)cc2)c(=O)n1-c1ccccc1`, for which the total growth inhibition concentration (TGI) with A498 renal, in the experiment on ACHN renal, in the experiment on HCT-15 colon, with HL-60(TB) leukemia, with HOP-62 NSCLC and with NCI-H226 lung was above 100 µM throughout. The TGI in the experiment with OVCAR-4 ovarian, with SF-539 CNS, in the experiment with SN12C renal, with SNB-19 CNS, in the experiment with SNB-75 CNS and in the experiment with TK-10 renal was above 100 µM throughout.
As for `S=C1N(/N=C/c2c3ccccc3cc3ccccc23)C(=Nc2ccccc2)C(=Nc2ccccc2)N1c1ccccc1`, the TGI in the experiment with DU-145 prostate, in the experiment on HCT-15 colon, in the experiment with HOP-62 NSCLC, in the experiment with HT29 colon, in the experiment on MDA-MB-231 breast and in the experiment on NCI-H226 lung was above 100 µM throughout. Also, the TGI with SF-295 CNS, in the experiment with SF-539 CNS, in the experiment with SN12C renal, with SNB-19 CNS and with TK-10 renal was above 100 µM each time.
On to `Cc1ccc(N2C(=O)CS/C2=C(\C#N)c2nc3ccccc3[nH]2)cc1`, for which the TGI in the experiment on A498 renal, with ACHN renal, in the experiment on HCT-15 colon, in the experiment with HL-60(TB) leukemia, in the experiment with HOP-62 NSCLC and with NCI-H226 lung was above 100 µM each time. The TGI in the experiment with OVCAR-4 ovarian, with SF-539 CNS, in the experiment with SN12C renal, in the experiment with SNB-19 CNS, in the experiment on SNB-75 CNS and in the experiment on TK-10 renal was above 100 µM each time.
As for `COc1ccc(N=Cc2ccc(N(CCC#N)S(=O)(=O)c3ccccc3)cc2)cc1`, the TGI in the experiment with A498 renal, with ACHN renal, in the experiment with HCT-15 colon, in the experiment on HL-60(TB) leukemia, with HOP-62 NSCLC and in the experiment on HT29 colon was above 100 µM each time. Further, the TGI in the experiment with NCI-H226 lung, in the experiment with OVCAR-4 ovarian, in the experiment on SF-295 CNS, in the experiment with SF-539 CNS, in the experiment with SN12C renal and in the experiment with SNB-19 CNS was above 100 µM throughout. For the same compound, the TGI in the experiment on SNB-75 CNS and in the experiment with TK-10 renal was above 100 µM in each case.
Turning to `CCOC(=O)/C=C/n1c2ccccc2c(=O)c2ccccc21`, the TGI with A498 renal, in the experiment with ACHN renal, with HCT-15 colon, with HL-60(TB) leukemia, in the experiment on HOP-62 NSCLC and with HT29 colon was above 100 µM in each case. Besides, the TGI in the experiment with NCI-H226 lung, in the experiment on OVCAR-4 ovarian, in the experiment with SF-295 CNS, in the experiment on SF-539 CNS, with SN12C renal and in the experiment on SNB-19 CNS was above 100 µM each time. In the experiment on TK-10 renal, this compound displayed a TGI above 100 µM.
Take `CC1=NN(c2nc(N)nc(CSc3nc4n(c(=S)n3)CCN4)n2)C(C)(C)C1`: the TGI with A498 renal was above 100 µM; with ACHN renal it was above 100 µM; with HCT-15 colon, above 100 µM; with HL-60(TB) leukemia, above 100 µM; in the experiment with HOP-62 NSCLC, 27.9 µM; in the experiment on HT29 colon it was above 100 µM. Besides, the TGI is above 100 µM with MDA-MB-231 breast; 53.1 µM with NCI-H226 lung; above 100 µM in the experiment with OVCAR-4 ovarian; 74 µM with SF-295 CNS; above 100 µM in the experiment on SF-539 CNS; above 100 µM in the experiment on SNB-19 CNS. For the same compound, the concentration for total growth inhibition (TGI) with SNB-75 CNS is 39.7 µM; in the experiment with TK-10 renal, above 100 µM.
Regarding `Nc1nc(SCc2ccc([N+](=O)[O-])cc2)nc2c1ncn2C1OC(CO)C(O)C1O` (stereo not drawn), the concentration for total growth inhibition (TGI) with A498 renal, in the experiment with ACHN renal, in the experiment on HCT-15 colon, with HL-60(TB) leukemia, with HOP-62 NSCLC and in the experiment on HT29 colon was above 100 µM each time. For the same compound, the TGI in the experiment on NCI-H226 lung, in the experiment with OVCAR-4 ovarian, in the experiment with SF-295 CNS, in the experiment on SN12C renal, in the experiment on SNB-19 CNS and with TK-10 renal was above 100 µM throughout.
`CCOc1ccc(/C(Cl)=C(\C=O)c2ccc(OC)c(OC)c2)cc1OCC`: the TGI in the experiment with ACHN renal is above 100 µM; with HCT-15 colon it was above 100 µM; in the experiment with HL-60(TB) leukemia, 62.7 µM; with HOP-62 NSCLC, above 100 µM; in the experiment with HT29 colon it was above 100 µM; with NCI-H226 lung it was above 100 µM. The total growth inhibition concentration (TGI) with OVCAR-4 ovarian, in the experiment on SF-295 CNS, in the experiment with SF-539 CNS, in the experiment with SN12C renal, in the experiment on SNB-19 CNS and in the experiment on SNB-75 CNS was above 100 µM throughout. Moreover, the total growth inhibition concentration (TGI) in the experiment on TK-10 renal is above 100 µM.
Consider `Cn1c(O)c(C=Nc2ccccc2[N+](=O)[O-])c(=O)n(C)c1=O`, for which the concentration for total growth inhibition (TGI) in the experiment on A498 renal, in the experiment with ACHN renal, in the experiment with HCT-15 colon, in the experiment with HOP-62 NSCLC, with HT29 colon and with MDA-MB-231 breast was above 100 µM each time. Moreover, the TGI in the experiment with NCI-H226 lung, in the experiment on OVCAR-4 ovarian, in the experiment with SF-295 CNS, with SF-539 CNS, in the experiment with SN12C renal and with SNB-19 CNS was above 100 µM each time. The TGI in the experiment with SNB-75 CNS and in the experiment with TK-10 renal was above 100 µM throughout.
Take `CC1CN(c2ccc(Cl)cc2)CC(C)OC(=O)O1` (stereo not drawn): the TGI with ACHN renal, with HCT-15 colon, in the experiment on HL-60(TB) leukemia, in the experiment with HOP-62 NSCLC, in the experiment on HT29 colon and with NCI-H226 lung was above 100 µM throughout. Moreover, the TGI with OVCAR-4 ovarian, in the experiment with SF-295 CNS, in the experiment with SF-539 CNS, with SN12C renal, in the experiment on SNB-19 CNS and in the experiment with SNB-75 CNS was above 100 µM each time. The same compound yielded a TGI in the experiment on TK-10 renal above 100 µM.

Broadly, the TGI is the concentration at which net growth stops.

The values above are taken from PubChem BioAssay (NCI).
